According to ChEMBL document CHEMBL2040796, “Synthesis and biological activity of both enantiomers of kujigamberol isolated from 85-million-years-old Kuji amber” (Bioorg Med Chem Lett, 2012):
Activity calls are given as the source filed them. No cut-off for these calls is given here.

Legend:
[1] = test system: Saccharomyces cerevisiae; test: Antimicrobial activity against Saccharomyces cerevisiae harboring zds1delta, erg3delta pdr1delta pdr3delta mutant assessed as clear growth restored zone at 0.5 to 0.0156 ug/spot; format: functional, organism-based
[2] = test system: HL-60; test: Cytotoxicity against human HL60 cells; format: functional, cell-based

| Structure (SMILES) | Activity [1] | Activity [2] | IC50 [2] [µM] |
| --- | --- | --- | --- |
| CC1(CO)CCCc2ccccc21 (configuration not stated) | inactive | inactive |  |
| COC(=O)C1(C)CCCc2ccccc21 (configuration not stated) | inactive | inactive |  |
| Cc1ccc2c(c1CCC(C)C)CCC[C@]2(C)CO [KUJIGAMBEROL] | Active |  | 24 |
| Cc1ccc2c(c1CCC(C)C)CCCC2CO (configuration not stated) | Active | Active |  |
| OCC1CCCc2ccccc21 (configuration not stated) | inactive | inactive |  |
| Cc1ccc2c(c1CCC(C)C)CCC[C@@]2(C)CO | Active | Active |  |
